From publication PMC8583936, “Machine Learning Assisted Approach for Finding Novel High Activity Agonists of Human Ectopic Olfactory Receptors” (International Journal of Molecular Sciences, 2021)
Several values for one entry are separate records, joined by “and”; a condition that tells them apart may be missing. Equal values may be shown once.

Tests used:
[1] = biological target: T1, OR2W1 (Homo sapiens, UniProt Q9Y3N9); test: Dual-Glo luciferase reporter gene assay, OR2W1 in Hana3A cells; assay type: cell-based; parameters: The open reading frames of ORs were amplified using Phusion polymerase; Rho-tag (first 20 amino acids of human rhodopsin) (N); expressed in transfected cells; host or cells: Hana3A cells (derived from HEK293T), pCI vector; co-transfected with human RTP1S, M3 receptor, CRE-Luc and SV40-RL; conditions: for activation of OR2W1 in dose-responses: Figure 4B; for Bottom / Top: log(agonist) vs. response (three parameters), normalized (L-400/R-400); for normilazed value = (L-400/R-400): three replicates
T1 sequence (Q9Y3N9 1-320): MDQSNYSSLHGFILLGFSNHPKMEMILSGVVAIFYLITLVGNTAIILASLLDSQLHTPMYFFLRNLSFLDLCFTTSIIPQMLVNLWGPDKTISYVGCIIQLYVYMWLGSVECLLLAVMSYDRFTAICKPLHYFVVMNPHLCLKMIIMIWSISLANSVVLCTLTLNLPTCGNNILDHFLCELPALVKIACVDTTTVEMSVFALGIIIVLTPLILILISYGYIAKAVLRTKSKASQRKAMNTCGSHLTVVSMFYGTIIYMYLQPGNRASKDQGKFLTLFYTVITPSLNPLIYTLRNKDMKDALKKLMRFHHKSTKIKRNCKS
Description: (§1) Hana3A cells were maintained in minimal essential medium containing 10% FBS (vol/vol) with penicillin-streptomycin and amphotericin B (1/200 each vol/vol) at 37 °C and 5% CO2. Hana3A cells are derived from HEK293T [57] and are optimized for OR studies as shown in several studies, compared to earlier OR expression in Sf9 insect cells in Gat et al., and in Xenopus oocytes, COS-7, PC12h and CHO-K1 cells in Katada et al..
(§2) The Dual-Glo luciferase assay system (Promega, Madison, WI, USA) was used to evaluate the functionality of wild-type OR1A1 and OR2W1 in an in vitro system. The open reading frames of ORs were amplified using Phusion polymerase (Thermo Fisher Scientific, Waltham, MA, USA). Amplified fragments were cloned into pCI expression vector (Promega, Madison, WI, USA) containing the sequence encoding the first 20 amino acids of human rhodopsin (Rho-tag) at N-terminal. Hana3A cells have been cultured and plated the day before transfection with 6 mL at 1/10 of a 100% confluence 100 mm plate into 96-well plates coated with poly D-lysine. After overnight incubation, the required genes were transfected using, for each plate, 5 ng SV40-RL, 10 ng CRE-Luc, 5 ng human RTP1S [72], 2.5 ng M3 receptor [73] and 5 ng of receptor (OR1A1, OR2W1 or empty vector Rho-pCI) plasmid. After around 18 h of transfection, cells were stimulated during 3.5 h by 25 µL of odorant diluted in CD293 + 1% glutamine + 30 µM CuCl2. Odorants were obtained from Sigma Aldrich (St. Louis, MO, USA) and diluted at 1 M concentration in DMSO as stock solutions. […] The luminescence of Firefly (Luc) and Renilla (Rluc) luciferase, were then sequentially monitored by injecting the corresponding substrate following the supplier’s protocol. The activity in each well was normalized as (Luc-400)/(Rluc-400). The response of the receptor was also normalized to its basal activity as (NLX/NL0)-1 where NL0 is the normalized luminescence value at 0 µM of odorant and NLX the value at X µM. […] Raw results were first analyzed with Excel (Microsoft Corporation, Albuquerque, NM, USA) and dose response curves, max efficacy and EC50 have been determined with GraphPrism 6 software (GraphPad Software, La Jolla, CA, USA). Areas under the curves (AUC) were calculated in Excel by summing all the OR responses at different concentrations for each odorant.

[2] = biological target: T2, OR1A1 (Homo sapiens, UniProt Q9P1Q5); test: Dual-Glo luciferase reporter gene assay, OR1A1 in Hana3A cells; assay type: cell-based; parameters: The open reading frames of ORs were amplified using Phusion polymerase; Rho-tag (first 20 amino acids of human rhodopsin) (N); expressed in transfected cells; host or cells: Hana3A cells (derived from HEK293T), pCI vector; co-transfected with human RTP1S, M3 receptor, CRE-Luc and SV40-RL; conditions: for activation of OR1A1 in dose-responses: Figure 4A; for EC50 / Bottom / Top / normilazed value = (L-400/R-400) / LogEC50: OR1A1; for Bottom / Top: log(agonist) vs. response (three parameters), normalized (L-400/R-400); for normilazed value = (L-400/R-400) / LogEC50: log[molecule]; for normilazed value = (L-400/R-400): three replicates; for LogEC50: M
T2 sequence (Q9P1Q5 1-309): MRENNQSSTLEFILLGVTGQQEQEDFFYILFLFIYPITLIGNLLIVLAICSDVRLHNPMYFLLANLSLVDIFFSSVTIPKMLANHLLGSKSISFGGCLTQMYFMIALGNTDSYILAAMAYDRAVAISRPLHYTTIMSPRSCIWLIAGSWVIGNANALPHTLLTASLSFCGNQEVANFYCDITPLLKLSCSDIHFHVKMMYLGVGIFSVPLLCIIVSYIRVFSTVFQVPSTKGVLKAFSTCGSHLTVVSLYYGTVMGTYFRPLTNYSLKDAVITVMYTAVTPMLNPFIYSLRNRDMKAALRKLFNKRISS
Description: as §1, §2

[3] = OR2W1, 95% CI (profile likelihood)
[4] = three-parameter fit, 95% CI (profile likelihood)

SMILES | activation of OR2W1 in dose-responses [1] | Bottom [1, 3] | Top [1, 3] | activation of OR1A1 in dose-responses [2] | EC50 ([2]; 95% CI) [µM] | Bottom ([2]; 95% CI (profile likelihood)) | Top ([2]; 95% CI (profile likelihood)) | normilazed value = (L-400/R-400) ([2]; M = -3.5) | normilazed value = (L-400/R-400) ([2]; M = -3.75) | normilazed value = (L-400/R-400) ([2]; M = -4) | normilazed value = (L-400/R-400) ([2]; M = -4.25) | normilazed value = (L-400/R-400) ([2]; M = -4.5) | normilazed value = (L-400/R-400) ([2]; M = -4.75) | normilazed value = (L-400/R-400) ([2]; M = -5) | normilazed value = (L-400/R-400) ([2]; M = -5.25) | normilazed value = (L-400/R-400) ([2]; M = -5.5) | normilazed value = (L-400/R-400) ([2]; M = -5.75) | normilazed value = (L-400/R-400) ([2]; M = -6) | EC50 [2, 4] [µM] | LogEC50 [2, 4] | other results
C=Cc1ccc(OCCCCOc2ccc(C=C)cc2)cc1 [1-Ethenyl-4-[4-(4-ethenylphenoxy)butoxy]benzene] | non-agonist | 13.33 to 18.34 | 19.48 to 21.36 | – | – | – | – | – | – | – | – | – | – | – | – | – | – | – | – | – | normilazed value = (L-400/R-400) ([1]; OR2W1, log[molecule], M = -3.5, listed as 1,4 bis(4-vinylphenoxy)butane): 14.9951 and 16.6432 and 18.6473; normilazed value = (L-400/R-400) ([1]; OR2W1, log[molecule], M = -3.75, listed as 1,4 bis(4-vinylphenoxy)butane): 18.9044 and 23.5612 and 19.9145; normilazed value = (L-400/R-400) ([1]; OR2W1, log[molecule], M = -4, listed as 1,4 bis(4-vinylphenoxy)butane): 20.1703 and 23.9778 and 22.651; normilazed value = (L-400/R-400) ([1]; OR2W1, log[molecule], M = -4.25, listed as 1,4 bis(4-vinylphenoxy)butane): 19.282 and 20.5728 and 18.4952; normilazed value = (L-400/R-400) ([1]; OR2W1, log[molecule], M = -4.5, listed as 1,4 bis(4-vinylphenoxy)butane): 18.9465 and 18.6061 and 21.68; normilazed value = (L-400/R-400) ([1]; OR2W1, log[molecule], M = -4.75, listed as 1,4 bis(4-vinylphenoxy)butane): 18.1682 and 21.4587 and 25.3103; normilazed value = (L-400/R-400) ([1]; OR2W1, log[molecule], M = -5, listed as 1,4 bis(4-vinylphenoxy)butane): 19.2619 and 21.2657 and 21.338; normilazed value = (L-400/R-400) ([1]; OR2W1, log[molecule], M = -5.25, listed as 1,4 bis(4-vinylphenoxy)butane): 22.445 and 21 and 22.2921; normilazed value = (L-400/R-400) ([1]; OR2W1, log[molecule], M = -5.5, listed as 1,4 bis(4-vinylphenoxy)butane): 19.9195 and 18.3482 and 19.8887; normilazed value = (L-400/R-400) ([1]; OR2W1, log[molecule], M = -5.75, listed as 1,4 bis(4-vinylphenoxy)butane): 21.6432 and 19.6062 and 21.4331; normilazed value = (L-400/R-400) ([1]; OR2W1, log[molecule], M = -6, listed as 1,4 bis(4-vinylphenoxy)butane): 16.9263 and 20.1438 and 17.6109
CCOc1ccc2ccccc2c1 [2-Ethoxynaphthalene] | activated OR2W1 in a dose-response manner | 9.687 to 19.33 | 32.32 to 36.67 | – | – | – | – | – | – | – | – | – | – | – | – | – | – | – | – | – | potency relative to the strongest OR2W1 agonist of Bushdid et al. ([1]; OR2W1, comparison with ref 14): two times more potent; normilazed value = (L-400/R-400) ([1]; OR2W1, log[molecule], M = -3.5): 30.4896 and 23.1676 and 21.7127; normilazed value = (L-400/R-400) ([1]; OR2W1, log[molecule], M = -3.75): 33.5459 and 34.0167 and 35.7983; normilazed value = (L-400/R-400) ([1]; OR2W1, log[molecule], M = -4): 29.5332 and 32.1424 and 36.1752; normilazed value = (L-400/R-400) ([1]; OR2W1, log[molecule], M = -4.25): 38.6596 and 38.9119 and 38.3122; normilazed value = (L-400/R-400) ([1]; OR2W1, log[molecule], M = -4.5): 28.5017 and 40.4493 and 38.4842; normilazed value = (L-400/R-400) ([1]; OR2W1, log[molecule], M = -4.75): 39.1645 and 34.3635 and 36.5051; normilazed value = (L-400/R-400) ([1]; OR2W1, log[molecule], M = -5): 30.1654 and 33.9031 and 33.7738; normilazed value = (L-400/R-400) ([1]; OR2W1, log[molecule], M = -5.25): 31.8777 and 31.6329 and 33.9788; normilazed value = (L-400/R-400) ([1]; OR2W1, log[molecule], M = -5.5): 30.0044 and 26.9494 and 25.4775; normilazed value = (L-400/R-400) ([1]; OR2W1, log[molecule], M = -5.75): 22.1602 and 26.5902 and 25.5852; normilazed value = (L-400/R-400) ([1]; OR2W1, log[molecule], M = -6): 23.2783 and 19.1056 and 20.6534; EC50 ([1]; OR2W1, three-parameter fit, 95% CI (profile likelihood)): 0.659 to 3.05 µM; LogEC50 ([1]; OR2W1, three-parameter fit, 95% CI (profile likelihood), log[molecule], M): -6.181 to -5.515
CCOC(=O)Cc1cccc(Br)c1 [Ethyl 2-(3-bromophenyl)acetate] | – | – | – | able to activate OR1A1 | 11.5 to 24.4 | 0.4401 to 2.007 | 11.66 to 13.55 | 9.12 and 11.0639 and 10.393 | 11.9065 and 11.6251 and 11.7476 | 13.3839 and 12.372 and 11.9409 | 8.912 and 11.2901 and 12.3912 | 7.943 and 8.382 and 10.0109 | 5.611 and 6.9779 and 6.123 | 5.045 and 5.149 and 4.806 | 3.622 and 3.689 and 4.46 | 2.564 and 3.159 and 3.452 | 2.1766 and 2.696 and 2.931 | 1.855 and 2.338 and 2.234 | 11.5 to 24.4 | -4.940 to -4.613 | –
COC(=O)Cc1ccccc1C [Methyl 2-(2-methylphenyl)acetate] | – | – | – | able to activate OR1A1 | 12.2 to 25 | 0.03511 to 1.535 | 11.79 to 13.66 | 10.0524 and 12.0337 and 11.3132 | 12.5278 and 11.5014 and 12.1842 | 10.2366 and 11.6676 and 13.2311 | 7.699 and 8.952 and 12.582 | 7.699 and 8.491 and 8.724 | 5.333 and 7.756 and 8.263 | 4.586 and 4.422 and 5.725 | 3.435 and 3.266 and 4.088 | 2.183 and 2.432 and 2.624 | 1.457 and 1.905 and 2.354 | 1.1663 and 1.179 and 1.777 | 12.2 to 25 | -4.914 to -4.603 | –
